From US9271991B2, “Trimegestone (TMG) for treatment of preterm birth” (Dignity Health, priority 2010, dated 2016)
“And” between values parts separate entries of the source, which are not always exact repeats. Identical values can stand only once.

Tests used:
[1] = test system: pregnant guinea pigs (preterm delivery); experiment: PGE2-induced preterm delivery in pregnant guinea pigs; type: in vivo, Hartley guinea pigs; conditions: TMG 4 mg/day s.c. days 44-47; PGE2 3 mg/day days 46, 47; sacrifice day 48
Text: Pregnant guinea pigs, another model of pregnancy are also utilized as they more closely resemble the endocrine control of human pregnancy with progesterone levels in pregnancy maintained by the placenta as opposed to the ovaries, which is observed in pregnant rats.
Pregnant Hartley guinea pigs arrived at our facilities at 31-35 days gestation and housed in pairs, with free access to food and water and also maintained on a constant 12-hour light-dark cycle. The animals were euthanized with a combination of xylazine (Gemini; Burns Veterinary Supply Inc, Rockville Center, N.Y.) and ketamine HCL (Ketaset; Fort Dodge Laboratories Inc, Fort Dodge, Iowa). All procedures were approved by the Animal Care and Use Committee of the St. Joseph's Hospital and Medical Center in Phoenix, Ariz.
Pregnant guinea pigs (N=4-6 per group) were allocated into 4 groups (Vehicle (v) only, TMG only, PGE2 only, PGE2+TMG). PGE2 administration (3 mg/day s.c, v=saline) began daily on day 46 to day 47 of gestation. TMG administration (4 mg/day s.c v=BB:CO) began daily on day 44 until day 47 of gestation. All guinea pigs were sacrificed on day 48.

[2] = test system: pregnant rats (term delivery); experiment: Delay of term delivery in pregnant rats; type: in vivo, Sprague-Dawley rats; conditions: pregnant rats
Text: Timed-pregnant Sprague-Dawley rats (200-250 g) from Charles-River Laboratories (Wilmington, Mass., USA) were delivered to our animal care facilities on day 15 of gestation (day 1 being the day when a sperm plug was observed). The animals were housed separately, with free access to food and water and maintained on a constant 12-hour light-dark cycle. Control pregnant rats were spontaneously delivering on day 22 of gestation. The animals were randomly allocated into groups and sacrificed by carbon dioxide inhalation on day 5 postpartum or on day 25 of gestation in the groups with delayed delivery.
Pregnant rats (N=6 per group) were treated, when not otherwise mentioned, from day 20 of gestation until delivery. Single daily treatments were performed at 8 am and twice a day treatments at 8 am and 8 pm. Treatment began daily on day 20 of gestation with vehicles or: a) Topical P4 at various doses (4-30 mg/day, vehicle (v)=fish oil) or topical TMG ([…], v=fish oil; b) Subcutaneous (s.c.) P4 (0.5-4 mg/day, v=sesame oil) or s.c. TMG (0.5-2 mg/day, v=benzyl benzoate (BB) and castor oil (CO), 1:4). Delivery times were observed.
Subcutaneous treatments. All daily injections were by the subcutaneous route (s.c) in […] for the P4 treatments and benzyl benzoate (BB, 1 part): castor oil (CO, 4 parts) for the TMG group. P4 and TMG had dose ranges of 0.5 mg-4 mg per day and 0.5 mg-2 mg per day, respectively. Vehicles only are used in the control groups.
Topical treatments. Topical P4 and TMG (in fish oil and benzyl benzoate:castor oil (1:4), respectively) treatments were applied to the shaved back of the rat twice a day For topical treatments of P4 and TMG, dose range from 2 mg-30 mg per day and 0.005 to 0.5 mg per day, respectively.
Times of delivery of controls and treatment groups were determined as hours after 8 a.m. on day 22 of gestation. […] Delays in delivery less than 80 hours were calculated as less than 100% inhibition. The expulsion of a single pup was noted as delivery. Control groups spontaneously delivered on day 22 of gestation.
The Student's t test was used to compare the treatment groups with its specific control groups to determine the differences in delivery times. A 2-tailed probability value of P<0.05 was considered statistically significant.

[3] = s.c. single daily treatment from day 20 of gestation
[4] = topical twice a day from day 20 of gestation

| SMILES | guinea pigs delivered (preterm) / treated, substance alone [1] | dose for complete block of delivery (80 hour delay, 100 percent inhibition), subcutaneous [2, 3] [mg] | dose for complete block of delivery, subcutaneous [2, 3] [mg/day] | dose for complete block of delivery (80 hour delay, 100 percent inhibition), topical [2, 4] [mg] | dose for complete block of delivery, topical [2, 4] [mg/day] |
| --- | --- | --- | --- | --- | --- |
| CCCCC[C@H](O)/C=C/[C@H]1[C@H](O)CC(=O)[C@@H]1C/C=C\CCCC(=O)O [PGE2, prostaglandin E2] | 2/3 and 4/6 | – | – | – | – |
| CC(=O)[C@H]1CC[C@H]2[C@@H]3CCC4=CC(=O)CC[C@]4(C)[C@H]3CC[C@]12C [P4, progesterone] | – | 2 | 2 | 15 | 15 |
